Where “and” joins values, the source holds several entries; their conditions need not be identical. Equal values may be shown once.
Test: xn = mol fraction of the nth substance listed
Details: 92.3 kPa, Liquid; for viscosity: Concentric cylinders viscometry; for speed of sound: Frequency=3 MHz, Single path-length method; for mass density: Vibrating tube method

CCO [ethanol] + O
Details | mass density, 303.15 K | mass density, 308.15 K | speed of sound, 303.15 K [m/s] | speed of sound, 308.15 K [m/s] | viscosity, 303.15 K [mPa·s] | viscosity, 308.15 K [mPa·s]
x1 = 0.0024 | 994.464 kg/m3 | 992.863 kg/m3 | 1513.4 | 1523.3 | – | –
x1 = 0.0201 | 986.86 kg/m3 | 985.15 kg/m3 | – | – | 0.9816 | 0.8821
x1 = 0.0202 | 986.01 kg/m3 | 984.706 kg/m3 | 1541.3 | 1548.3 | – | –
x1 = 0.0295 | 983.11 kg/m3 | 981.361 kg/m3 | 1555 | 1560.3 | – | –
x1 = 0.0366 | 980.577 kg/m3 | 978.735 kg/m3 | 1564.9 | 1568.9 | – | –
x1 = 0.0408 | 978.54 kg/m3 | 976.58 kg/m3 | – | – | 1.162 | 1.006
x1 = 0.0497 | 976.06 kg/m3 | 973.32 kg/m3 | – | – | 1.223 | 1.073
x1 = 0.0513 | 975.532 kg/m3 | 973.534 kg/m3 | 1583.5 | 1584.5 | – | –
x1 = 0.06 | 971.89 kg/m3 and 972.787 kg/m3 | 970.651 kg/m3 and 969.36 kg/m3 | 1592.4 | 1591.8 | 1.323 | 1.158
x1 = 0.0707 | 969.513 kg/m3 | 967.196 kg/m3 | 1601.4 | 1598.7 | – | –
x1 = 0.0796 | 966.81 kg/m3 | 964.08 kg/m3 | – | – | 1.49 | 1.284
x1 = 0.0801 | 966.689 kg/m3 | 964.224 kg/m3 | 1607 | 1602.7 | – | –
x1 = 0.0904 | 963.577 kg/m3 | 960.944 kg/m3 | 1610.8 | 1604.7 | – | –
x1 = 0.0997 | 960.797 kg/m3 | 958.013 kg/m3 | 1611.9 | 1604.4 | – | –
x1 = 0.1004 | 958.69 kg/m3 | 955.87 kg/m3 | – | – | 1.656 | 1.43
x1 = 0.1294 | 951.878 kg/m3 | 948.682 kg/m3 | 1602.7 | 1592.3 | – | –
x1 = 0.1497 | 945.612 kg/m3 | 942.174 kg/m3 | 1588.3 | 1576.5 | – | –
x1 = 0.1499 | 945.56 kg/m3 | 942.15 kg/m3 | – | – | 1.88 | 1.591
x1 = 0.1984 | 928.77 kg/m3 | 925.04 kg/m3 | – | – | 1.994 | 1.696
x1 = 0.2008 | 929.658 kg/m3 | 925.836 kg/m3 | 1540.8 | 1527.8 | – | –
x1 = 0.2499 | 915.3 kg/m3 | 911.28 kg/m3 | – | – | 2.048 | 1.719
x1 = 0.2503 | 914.742 kg/m3 | 910.712 kg/m3 | 1493.5 | 1480 | – | –
x1 = 0.2998 | 900.761 kg/m3 | 896.603 kg/m3 | 1450.6 | 1436.6 | – | –
x1 = 0.3016 | 900.76 kg/m3 | 896.6 kg/m3 | – | – | 1.982 | 1.697
x1 = 0.3499 | 888.09 kg/m3 | 883.84 kg/m3 | – | – | 1.934 | 1.664
x1 = 0.3507 | 887.521 kg/m3 | 883.273 kg/m3 | 1411.8 | 1397.3 | – | –
x1 = 0.399 | 876.09 kg/m3 | 871.78 kg/m3 | – | – | 1.863 | 1.617
x1 = 0.3992 | 875.988 kg/m3 | 871.678 kg/m3 | 1379.4 | 1364.6 | – | –
x1 = 0.4495 | 865.03 kg/m3 | 860.66 kg/m3 | – | – | 1.783 | 1.55
x1 = 0.4514 | 864.712 kg/m3 | 860.353 kg/m3 | 1348.7 | 1333.4 | – | –
x1 = 0.4989 | 855.7 kg/m3 | 851.3 kg/m3 | – | – | 1.697 | 1.482
x1 = 0.5002 | 854.622 kg/m3 | 850.223 kg/m3 | 1322.3 | 1306.7 | – | –
x1 = 0.5494 | 845.433 kg/m3 | 841.009 kg/m3 | 1298.6 | 1282.7 | – | –
x1 = 0.5495 | 846.35 kg/m3 | 841.93 kg/m3 | – | – | 1.636 | 1.437
x1 = 0.6018 | 836.274 kg/m3 | 831.83 kg/m3 | 1275.2 | 1259 | – | –
x1 = 0.6067 | 835.6 kg/m3 | 831.06 kg/m3 | – | – | 1.528 | 1.347
x1 = 0.6503 | 828.55 kg/m3 and 828.435 kg/m3 | 823.98 kg/m3 and 824.09 kg/m3 | 1255.3 | 1238.8 | 1.46 | 1.292
x1 = 0.6956 | 821.65 kg/m3 | 817.19 kg/m3 | – | – | 1.388 | 1.229
x1 = 0.7006 | 820.66 kg/m3 | 816.2 kg/m3 | 1235.5 | 1218.8 | – | –
x1 = 0.7355 | 815.498 kg/m3 | 811.052 kg/m3 | 1222.2 | 1206.3 | – | –
x1 = 0.75 | 813.63 kg/m3 | 809.16 kg/m3 | – | – | 1.315 | 1.171
x1 = 0.7843 | 809.09 kg/m3 | 804.63 kg/m3 | – | – | 1.272 | 1.135
x1 = 0.7965 | 807.074 kg/m3 | 802.628 kg/m3 | 1199.9 | 1183 | – | –
x1 = 0.8433 | 800.833 kg/m3 | 796.401 kg/m3 | 1183.1 | 1166.1 | – | –
x1 = 0.8475 | 801.24 kg/m3 | 796.81 kg/m3 | – | – | 1.201 | 1.077
x1 = 0.8864 | 795.58 kg/m3 | 791.17 kg/m3 | – | – | 1.141 | 1.027
x1 = 0.892 | 794.442 kg/m3 | 790.037 kg/m3 | 1165.4 | 1148.7 | – | –
x1 = 0.9093 | 792.256 kg/m3 | 787.861 kg/m3 | 1159.2 | 1142.6 | – | –
x1 = 0.9207 | 790.841 kg/m3 | 786.448 kg/m3 | 1155.2 | 1138.3 | – | –
x1 = 0.929 | 789.85 kg/m3 | 785.46 kg/m3 | – | – | 1.086 | 0.9821
x1 = 0.9307 | 789.562 kg/m3 | 785.175 kg/m3 | 1151.5 | 1134.6 | – | –
x1 = 0.9398 | 788.477 kg/m3 | 784.096 kg/m3 | 1148.3 | 1131.4 | – | –
x1 = 0.9483 | 787.394 kg/m3 | 783.019 kg/m3 | 1145.2 | 1128.4 | – | –
x1 = 0.9603 | 785.958 kg/m3 | 781.59 kg/m3 | 1141.1 | 1124.2 | – | –
x1 = 0.9702 | 784.743 kg/m3 | 780.379 kg/m3 | 1137.5 | 1120.6 | – | –
x1 = 0.9801 | 783.417 kg/m3 | 779.061 kg/m3 | 1134.3 | 1117.5 | – | –
x1 = 0.9895 | 782.456 kg/m3 | 778.103 kg/m3 | 1130.8 | 1114 | – | –
x1 = 1 | 780.941 kg/m3 | 776.592 kg/m3 | 1126.4 | 1109.6 | 0.992 | 0.9039
